Experimental data reported in paper PMC5562523 (Cell chemical biology, 2017).

Legend:
CDC1551 katG::Tn mutant = type: cell-based, Mycobacterium tuberculosis; conditions: pH 5.7
CDC1551 (ΔphoPR) = type: cell-based; conditions: acidic pH

COc1ccc(NC(=O)c2nc(S(C)(=O)=O)ncc2Cl)cc1Cl [AC2P36, 5-chloro-N-(3-chloro-4-methoxyphenyl)-2-methylsulfonylpyrimidine-4-carboxamide]
sensitivity of WT, katG::Tn mutant and complemented strain to AC2P36 (CDC1551 katG::Tn mutant): No difference was observed between the three strains | sensitivity of ΔphoPR mutant vs WT to AC2P36 (CDC1551 (ΔphoPR)): no differences were observed between WT or ΔphoPR sensitivity to AC2P36
